Measured values published in PubChem BioAssay (NCI).
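Five concentrations, 48 hours, 96-well plates. Abbreviation: GI50, concentration required for 50% inhibition of growth. The concentration for full growth arrest is given as TGI.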

Experiments:
Assay in all cases: NCI anticancer screen, dose series, 48 h
SK-OV-3 ovarian = tested on: SK-OV-3 ovarian
ACHN renal = tested on: ACHN renal
HOP-92 NSCLC = tested on: HOP-92 NSCLC
HT29 colon = tested on: HT29 colon
HCT-15 colon = tested on: HCT-15 colon
UACC-257 melanoma = tested on: UACC-257 melanoma
SN12C renal = tested on: SN12C renal
SK-MEL-28 melanoma = tested on: SK-MEL-28 melanoma
SNB-75 CNS = tested on: SNB-75 CNS
MDA-MB-468 breast = tested on: MDA-MB-468 breast
NCI-H23 lung = tested on: NCI-H23 lung
CAKI-1 renal = tested on: CAKI-1 renal
KM12 colon = tested on: KM12 colon
OVCAR-4 ovarian = tested on: OVCAR-4 ovarian
M14 melanoma = tested on: M14 melanoma
NCI-H522 lung = tested on: NCI-H522 lung
MCF7 breast = tested on: MCF7 breast
A498 renal = tested on: A498 renal
BT-549 breast = tested on: BT-549 breast
TK-10 renal = tested on: TK-10 renal
LOX IMVI melanoma = tested on: LOX IMVI melanoma
U251 CNS = tested on: U251 CNS
IGROV1 ovarian = tested on: IGROV1 ovarian
SF-268 CNS = tested on: SF-268 CNS
HCT-116 colon = tested on: HCT-116 colon
SNB-19 CNS = tested on: SNB-19 CNS
NCI-H460 lung = tested on: NCI-H460 lung
UACC-62 melanoma = tested on: UACC-62 melanoma
RPMI-8226 leukemia = tested on: RPMI-8226 leukemia
SK-MEL-5 melanoma = tested on: SK-MEL-5 melanoma
DU-145 prostate = tested on: DU-145 prostate
SW-620 colon = tested on: SW-620 colon
EKVX NSCLC = tested on: EKVX NSCLC
HS 578T breast = tested on: HS 578T breast
CCRF-CEM leukemia = tested on: CCRF-CEM leukemia
MOLT-4 leukemia = tested on: MOLT-4 leukemia
COLO 205 colon = tested on: COLO 205 colon
SF-539 CNS = tested on: SF-539 CNS
OVCAR-5 ovarian = tested on: OVCAR-5 ovarian
K-562 leukemia = tested on: K-562 leukemia
OVCAR-8 ovarian = tested on: OVCAR-8 ovarian
NCI-H226 lung = tested on: NCI-H226 lung
A549 NSCLC = tested on: A549 NSCLC
RXF 393 renal = tested on: RXF 393 renal
PC-3 prostate = tested on: PC-3 prostate
HL-60(TB) leukemia = tested on: HL-60(TB) leukemia
MALME-3M melanoma = tested on: MALME-3M melanoma
T-47D breast = tested on: T-47D breast
MDA-MB-231 breast = tested on: MDA-MB-231 breast
HCC-2998 colon = tested on: HCC-2998 colon
OVCAR-3 ovarian = tested on: OVCAR-3 ovarian
UO-31 renal = tested on: UO-31 renal
786-0 renal = tested on: 786-0 renal
HOP-62 NSCLC = tested on: HOP-62 NSCLC
SF-295 CNS = tested on: SF-295 CNS
SR leukemia = tested on: SR leukemia

Work on `CN(C)c1ccnc(CNCCSC2(c3ccc(C(F)(F)F)cc3)c3ccccc3CCc3ccccc32)c1` yielded a GI50 (SK-OV-3 ovarian) of 3.32 µM, a TGI (SK-OV-3 ovarian) of 13.4 µM and a GI50 (ACHN renal) of 0.909 µM. For the same molecule, the TGI (ACHN renal) was 15 µM, the GI50 (HOP-92 NSCLC) was 2.12 µM and the TGI (HOP-92 NSCLC) was 11.7 µM. It also gave a GI50 (HT29 colon) of 1.68 µM, a TGI (HT29 colon) of 4.11 µM and a GI50 (HCT-15 colon) of 0.403 µM. The TGI (HCT-15 colon) was 11 µM, the GI50 (UACC-257 melanoma) was 3.67 µM and the TGI (UACC-257 melanoma) was 15.9 µM. For the same molecule, the GI50 (SN12C renal) was 0.59 µM, the TGI (SN12C renal) was 8.25 µM and the GI50 (SK-MEL-28 melanoma) was 3.76 µM. For the same molecule, the TGI (SK-MEL-28 melanoma) was 15.9 µM, the GI50 (SNB-75 CNS) was 1.84 µM and the TGI (SNB-75 CNS) was 8.92 µM. The GI50 (MDA-MB-468 breast) was 0.293 µM, the TGI (MDA-MB-468 breast) was 0.906 µM and the GI50 (NCI-H23 lung) was 2.72 µM. It also gave a TGI (NCI-H23 lung) of 11.8 µM, a GI50 (CAKI-1 renal) of 2.11 µM and a TGI (CAKI-1 renal) of 14.8 µM. The GI50 (KM12 colon) was 1.26 µM, the TGI (KM12 colon) was 5.16 µM and the GI50 (OVCAR-4 ovarian) was 4.05 µM. It also gave a TGI (OVCAR-4 ovarian) of 17.3 µM, a GI50 (M14 melanoma) of 0.465 µM and a TGI (M14 melanoma) of 2.97 µM. It also gave a GI50 (NCI-H522 lung) of 0.473 µM, a TGI (NCI-H522 lung) of 4.26 µM and a GI50 (MCF7 breast) of 0.356 µM. The TGI (MCF7 breast) was 4.32 µM, the GI50 (A498 renal) was 14 µM and the TGI (A498 renal) was 32.1 µM. The GI50 (BT-549 breast) was 2.76 µM, the TGI (BT-549 breast) was 7.36 µM and the GI50 (TK-10 renal) was 3.91 µM. It also gave a TGI (TK-10 renal) of 16.1 µM, a GI50 (LOX IMVI melanoma) of 1.14 µM and a TGI (LOX IMVI melanoma) of 2.43 µM. It also gave a GI50 (U251 CNS) of 0.439 µM, a TGI (U251 CNS) of 3.56 µM and a GI50 (IGROV1 ovarian) of 1.4 µM. For the same molecule, the TGI (IGROV1 ovarian) was 13.6 µM, the GI50 (SF-268 CNS) was 3.24 µM and the TGI (SF-268 CNS) was 17.7 µM. The GI50 (HCT-116 colon) was 0.365 µM, the TGI (HCT-116 colon) was 1.78 µM and the GI50 (SNB-19 CNS) was 1.24 µM. It also gave a TGI (SNB-19 CNS) of 14.3 µM, a GI50 (NCI-H460 lung) of 0.603 µM and a TGI (NCI-H460 lung) of 2.54 µM. It also gave a GI50 (UACC-62 melanoma) of 3.24 µM, a TGI (UACC-62 melanoma) of 14.5 µM and a GI50 (RPMI-8226 leukemia) of 1.18 µM. It also gave a TGI (RPMI-8226 leukemia) of 6.42 µM, a GI50 (SK-MEL-5 melanoma) of 1.15 µM and a TGI (SK-MEL-5 melanoma) of 2.46 µM. The GI50 (DU-145 prostate) was 3.08 µM, the TGI (DU-145 prostate) was 11.3 µM and the GI50 (SW-620 colon) was 0.446 µM. The TGI (SW-620 colon) was 12.5 µM, the GI50 (EKVX NSCLC) was 0.653 µM and the TGI (EKVX NSCLC) was 12.7 µM. The GI50 (HS 578T breast) was 1.62 µM, the TGI (HS 578T breast) was 7.58 µM and the GI50 (CCRF-CEM leukemia) was 0.37 µM. The TGI (CCRF-CEM leukemia) was 6.35 µM, the GI50 (MOLT-4 leukemia) was 1.6 µM and the TGI (MOLT-4 leukemia) was 4.45 µM. For the same molecule, the GI50 (COLO 205 colon) was 1.02 µM, the TGI (COLO 205 colon) was 2.42 µM and the GI50 (SF-539 CNS) was 0.675 µM. It also gave a TGI (SF-539 CNS) of 2.47 µM, a GI50 (OVCAR-5 ovarian) of 2.04 µM and a TGI (OVCAR-5 ovarian) of 9.12 µM. The GI50 (K-562 leukemia) was 0.336 µM, the TGI (K-562 leukemia) was 1.86 µM and the GI50 (OVCAR-8 ovarian) was 0.739 µM. For the same molecule, the TGI (OVCAR-8 ovarian) was 10.8 µM, the GI50 (NCI-H226 lung) was 2.38 µM and the TGI (NCI-H226 lung) was 13.9 µM. It also gave a GI50 (A549 NSCLC) of 1.3 µM, a TGI (A549 NSCLC) of 15.1 µM and a GI50 (RXF 393 renal) of 2.17 µM. It also gave a TGI (RXF 393 renal) of 9.12 µM, a GI50 (PC-3 prostate) of 1.05 µM and a TGI (PC-3 prostate) of 12 µM. It also gave a GI50 (HL-60(TB) leukemia) of 0.394 µM, a TGI (HL-60(TB) leukemia) of 1.96 µM and a GI50 (MALME-3M melanoma) of 1.44 µM. The TGI (MALME-3M melanoma) was 3.09 µM, the GI50 (T-47D breast) was 3.42 µM and the TGI (T-47D breast) was 15.6 µM. It also gave a GI50 (MDA-MB-231 breast) of 0.479 µM, a TGI (MDA-MB-231 breast) of 2.75 µM and a GI50 (HCC-2998 colon) of 0.537 µM. The TGI (HCC-2998 colon) was 1.83 µM, the GI50 (OVCAR-3 ovarian) was 1.31 µM and the TGI (OVCAR-3 ovarian) was 10.5 µM. The GI50 (UO-31 renal) was 2.46 µM, the TGI (UO-31 renal) was 16 µM and the GI50 (786-0 renal) was 1.9 µM. It also gave a TGI (786-0 renal) of 11.2 µM, a GI50 (HOP-62 NSCLC) of 2.2 µM and a TGI (HOP-62 NSCLC) of 13.6 µM. It also gave a GI50 (SF-295 CNS) of 0.467 µM, a TGI (SF-295 CNS) of 2.34 µM and a GI50 (SR leukemia) of 0.345 µM. For the same molecule, the TGI (SR leukemia) was 1.62 µM.
